Marks after values point to notes of the source that are not given here.
How the values were obtained:
[1] = tested on: leukotriene B4 (LTB4) expression; test: LTB4 expression from calcium ionophore-stimulated rat basophilic leukemia cells; format: cell-based
[2] = tested on: monosodium iodoacetate (MIA)-induced osteoarthritis; test: MIA rat model, acute single oral dose: change in hind paw weight distribution (joint pain); format: in vivo; details: for shift in weight bearing potential (joint pain) versus pre-dose: 2, 4 and 6 hours post administration
Experimental: (§1) It should be appreciated that in Biological Methods 1, 2, 4, and 5 below, hind paw weight bearing differentials between the paw of the limb having the control joint (in animals administered test compound vehicle only) and the paw of the limb having the contralateral test joint (in control or inducement animals administered test compound vehicle only and in treatment animals administered test compound dissolved in test compound vehicle) were determined using an incapacitance tester, model 2KG (Linton Instrumentation, Norfolk, United Kingdom). The incapacitance tester has a chamber on top with an outwardly sloping front wall that supports a rat's front limbs, and two weight sensing pads, one for each hind paw, that facilitates this determination. The hind paw weight bearing differentials were expressed in grams and calculated as follows: (the average weight in grams placed on the control limb minus the average weight in grams placed on the contralateral test limb for each of the inducement or treatment animals) minus (the average weight in grams placed on the control limb minus the average weight in grams placed on the contralateral test limb for each of the control animals). All results were statistically analyzed by comparing the average results for an induction or treatment group with the average result for its control group at the same time point using analysis of covariance (“ANCOVA”) followed by the Hoehberg's procedure and those with statistical significance had p<0.05 unless otherwise noted.
The rats were anesthetized with 5% volume/volume (“v/v”) isoflurane gas and maintained with 2% v/v isoflurane gas. The anesthetized rats were given a single intra-articular injection of 1 mg of MIA through the infrapatellar ligament of the right knee. MIA was dissolved in physiologic saline and administered in a volume of 50 μL. The contralateral control knee was injected with 50 μL of physiologic saline. Administration of isoflurane gas was discontinued, and the rats became fully conscious about 5 minutes later.
Shifts in hind paw weight distribution from the right to the left hind paws supporting the right (arthritic) and the left (contralateral control) hind leg knee joints were utilized as an index of joint pain and as a measure of compound efficacy. An incapacitance tester (Model 2KG, Linton Instrumentation, UK) was employed for determination of hind paw weight distribution. Each data point is the mean of three readings of 5 seconds duration.
CI-1027 (i.e., 6-(5-carboxy-5-methyl-hexyloxy)-2,2-dimethyl-hexanoic acid, calcium salt) was dissolved in hydroxypropylmethylcellulose (“HPMC”) vehicle (0.05% HPMC+0.2% Tween 80; compound amount was adjusted based on the percent of free acid, i.e., 6-(5-carboxy-5-methyl-hexyloxy)-2,2-dimethyl-hexanoic acid).
[…] Rats were then given a single, 10, 30, or 100 mg/kg, dose of CI-1027 via oral gavage (PO). Changes in hind paw weight distribution were determined 2, 4 and 6 hours post-compound administration.
6-(5-carboxy-5-methyl-hexyloxy)-2,2-dimethyl-hexanoic acid, calcium salt (“CI-1027”) and rofecoxib was tested in the rat MIA model in an acute dosing paradigm as described previously. MIA was injected into the right knee and saline into the left knee of all rats on Day 0. […] Two hours later, the rats were reassessed. The results for inhibition of pain, expressed as a percentage±standard error of the mean, are shown below in Table 5. The percent inhibition of pain was determined as described above in Biological Method 1. […] N=8 rats per group.

[3] = tested on: monosodium iodoacetate (MIA)-induced osteoarthritis; test: MIA rat model, chronic oral b.i.d. dosing: change in hind paw weight distribution (joint function limitation / joint pain); format: in vivo; details: for IJFL (Inhibition of Joint Function Limitation) (% +/− SEM): four week study; for change in hind paw weight distribution: Days 7, 14 and 28 (FIG. 3); for inhibition of change in hind paw weight distribution: 30 mg/kg PO b.i.d.
Experimental: as §1
Generally, In the MIA Rat model on Day 0, the hind-paw weight differential between the right arthritic joint and the left healthy joint of male Wistar rats (150 g) are determined with an incapacitance tester, model 2KG (Linton Instrumentation, Norfolk, United Kingdom). The incapacitance tester has a chamber on top with an outwardly sloping front wall that supports a rat's front limbs, and two weight sensing pads, one for each hind paw, that facilitates this determination. Then the rats are anesthetized with isofluorine, and the right, hind leg knee joint is injected with 1.0 mg of mono-iodoacetate (“MIA”) through the infrapatellar ligament. Injection of MIA into the joint results in the inhibition of glycolysis and eventual death of surrounding chondrocytes. The rats are further administered either an active compound useful in the invention method, or a pharmaceutically acceptable salt thereof, or vehicle (in the instant case, water) daily for 14 days or 28 days. The substituted dialkyl ether, substituted aryl-alkyl ether, substituted dialkyl thioether, substituted dialkyl ketone, or substituted-alkyl compound useful in the invention method, or a pharmaceutically acceptable salt thereof, is typically administered at a dose of 30 mg of substituted dialkyl ether, substituted aryl-alkyl ether, substituted dialkyl thioether, substituted dialkyl ketone, or substituted-alkyl compound useful in the invention method, or a pharmaceutically acceptable salt thereof, per kilogram of rat per day (30 mg/kg/day), but may be administered at other doses such as, for example, mg/kg/day, 60 mg/kg/day, 90-mg/kg/day, or 100 mg/kg/day according to the requirements of the compound being studied. It is well within the level of ordinary skill in the pharmaceutical arts to determine a proper dosage of an active compound useful in the invention method, or a pharmaceutically acceptable salt thereof, in this model. Administration of the substituted dialkyl ether, substituted aryl-alkyl ether, substituted dialkyl thioether, substituted dialkyl ketone, or substituted-alkyl compound useful in the invention method, or a pharmaceutically acceptable salt thereof, in this model is optionally by oral administration or intravenous administration via an osmotic pump. After 7 and 14 days for a two week study, or 7, 14, and 28 days for a four week study, the hind-paw weight distribution is again determined. […]

[4] = Blood pressure in normal healthy humans; format: in vivo, human

## CC(C)(CCCCOCCCCC(C)(C)C(=O)[O-])C(=O)[O-].[Ca+2] [CI-1027, 6-(5-carboxy-5-methyl-hexyloxy)-2,2-dimethyl-hexanoic acid, calcium salt]
[1]
  inhibition of LTB4 expression: does not inhibit
[2]; 10 mg/kg PO single dose on Day 14
  shift in weight bearing potential (joint pain) versus pre-dose: did not significantly alter
[2]; 30 mg/kg PO single dose on Day 14
  shift in weight bearing potential (joint pain) versus pre-dose: only the change at the 4-hour post dose time point was statistically significant
[2]; 100 mg/kg PO single dose on Day 14
  shift in weight bearing potential (joint pain) versus pre-dose: statistically significant
[2]; CI-1027 10 mg/kg PO alone, Day 14
  Mean pain alleviation at 2 hours post administration (% ± SEM): 20 ± 9%
[2]; single oral dose 30 mg/kg on Day 7, 4 hours post dose
  Inhibition of Pain (% versus control), MIA (acute): 67 ± 8%
[3]; 3 mg/kg PO BID
  IJFL (Inhibition of Joint Function Limitation) (% +/− SEM): 3 +/− 156%
[3]; 3 mg/kg PO b.i.d.
  change in hind paw weight distribution: no statistically significant changes
[3]; 10 mg/kg PO BID
  IJFL (Inhibition of Joint Function Limitation) (% +/− SEM): 36 +/− 9%
[3]; 10 mg/kg PO b.i.d.
  change in hind paw weight distribution: no statistically significant changes
[3]; 30 mg/kg PO BID, dose-response experiment
  IJFL (Inhibition of Joint Function Limitation) (% +/− SEM): 63 +/− 8^a %
[3]; 30 mg/kg PO BID, single-dose-level experiment (last table row)
  IJFL (Inhibition of Joint Function Limitation) (% +/− SEM): 60 +/− 8^a %
[3]; Day 7, dose-response experiment (FIG. 3), not significant
  inhibition of change in hind paw weight distribution: 38±14%
[3]; Day 7, first experiment (FIG. 2)
  inhibition of change in hind paw weight distribution: 47±8%
[3]; Day 14, dose-response experiment (FIG. 3)
  inhibition of change in hind paw weight distribution: 50±10%
[3]; Day 14, first experiment (FIG. 2)
  inhibition of change in hind paw weight distribution: 71±9%
[3]; Day 28, dose-response experiment (FIG. 3)
  inhibition of change in hind paw weight distribution: 62±8%
[3]; Day 28, first experiment (FIG. 2)
  inhibition of change in hind paw weight distribution: 60±8%
[4]
  effect on blood pressure: no effect or perhaps even slightly (1-5 mmHg) decreases

Reference: patent publication US20070203212A1, “METHOD OF TREATING OSTEOARTHRITIS” (WARNER-LAMBERT COMPANY, priority 2002, published 2007)
